Test results: patent EP4603105A1, “PHARMACEUTICAL COMPOSITION CONTAINING CYCLIC COMPOUND HAVING SELECTIVE KRAS INHIBITORY EFFECT AGAINST HRAS AND NRAS” (CHUGAI SEIYAKU KABUSHIKI KAISHA, priority 2022, dated 2024)
pIC50, pKd: −log10 of the molar value.

Key:
[1] = target: GDP-bound KRAS wild-type protein (Homo sapiens, UniProt P01116); test: Binding to KRAS by surface plasmon resonance (SPR), dissociation constant KD
Method in brief: (§1)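 Each cycle, GDP-bound biotin-Avi RAS was captured (~100–300 RU), compound concentrations were injected low to high for 75 s each at 100 µL/min, then the chip was regenerated. Buffer: HBS pH 7.4, 10 mM MgCl2, 10 µM GDP, 1 mM DTT, 4% DMSO; 30°C. KD from a 1:1 binding model.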

[2] = target: GDP-bound NRAS wild-type protein (Homo sapiens, UniProt P01111); test: Binding to NRAS by surface plasmon resonance (SPR), KD and KD ratio to KRAS; conditions: ratio of KD for GDP-bound NRAS wild-type protein to KD for KRAS
Sequence of GDP-bound NRAS wild-type protein (P01111 whole entry): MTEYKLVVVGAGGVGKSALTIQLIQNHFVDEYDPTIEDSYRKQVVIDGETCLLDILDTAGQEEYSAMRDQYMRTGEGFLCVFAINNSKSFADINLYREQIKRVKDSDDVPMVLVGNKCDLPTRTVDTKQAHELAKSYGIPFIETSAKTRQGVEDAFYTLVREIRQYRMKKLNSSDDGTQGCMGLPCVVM
Method in brief: as §1

HRAS wild-type protein = HRAS wild-type protein (Homo sapiens, UniProt P01112); test: Binding to HRAS by surface plasmon resonance (SPR), KD and KD ratio to KRAS; conditions: ratio of KD for HRAS wild-type protein to KD for KRAS
Sequence of HRAS wild-type protein (P01112 whole entry): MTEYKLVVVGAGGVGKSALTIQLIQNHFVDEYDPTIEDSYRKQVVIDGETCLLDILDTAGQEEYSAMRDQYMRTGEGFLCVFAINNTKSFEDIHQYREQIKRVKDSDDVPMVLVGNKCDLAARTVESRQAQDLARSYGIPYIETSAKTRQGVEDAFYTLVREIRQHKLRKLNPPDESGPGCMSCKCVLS
Method in brief: as §1

[3] = test system: human lung cancer strain NCI-H441; test: NCI-H441 cell proliferation inhibitory activity (CellTiter-Glo, 4 days); assay type: cell-based; conditions: NCI-H441 cells, 4 days, read-out: NCl-H441 IC50
Method in brief: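 Signal came from […] measured per well once the reagent was added. Beforehand, cells were cultured at 37°C and 5% carbon dioxide on a compound series serially diluted in dimethyl sulfoxide.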

Sequence of GDP-bound KRAS wild-type protein (P01116 1-188 isoform P01116-2): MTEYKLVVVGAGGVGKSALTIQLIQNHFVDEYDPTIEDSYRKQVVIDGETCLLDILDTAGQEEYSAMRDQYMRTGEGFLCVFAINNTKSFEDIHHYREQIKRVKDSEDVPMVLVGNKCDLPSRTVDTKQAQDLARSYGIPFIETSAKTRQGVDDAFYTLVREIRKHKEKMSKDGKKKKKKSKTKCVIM

| Compound | pKd ([1]; Single Cycle Kinetics) | NRAS /KRAS [2] | HRAS /KRAS (HRAS wild-type protein) | pIC50 [3] | pKd ([1]; 1:1 binding model) |
| --- | --- | --- | --- | --- | --- |
| CCO[C@@H]1C[C@H]2C(=O)NC(C)(C)C(=O)N(C)[C@@H](C3CCCC3)C(=O)N(C)[C@H](C(=O)N(C)C)CC(=O)N(C)[C@@H](CC(C)C)C(=O)N[C@@H]([C@@H](C)CC)C(=O)N(C)CC(=O)N(C)[C@H]3C/C(F)=C\CCN(C3=O)[C@@H](Cc3ccc(C)cc3)C(=O)N(C)CC(=O)N[C@@H](CCc3cc(F)c(C(F)(F)F)c(F)c3)C(=O)N2C1 [PP3523] | 9.23 | B (a compound having 3 or more and less than 10 is denoted as B) | B (a compound having 3 or more and less than 10 is denoted as B) | 7.62 |  |
| CCO[C@@H]1C[C@H]2C(=O)NC3(CC(C)(C)C3)C(=O)N(C)[C@@H](C3CCCC3)C(=O)N(C)[C@H](C(=O)N(C)CC)CC(=O)N(C)[C@@H]([C@H](C)OC)C(=O)N[C@@H]([C@@H](C)CC)C(=O)N(C)CC(=O)N(C)[C@H]3C/C=C\CCN(C3=O)[C@@H](Cc3ccc(C(F)(F)F)cc3)C(=O)N(C)CC(=O)N[C@@H](CCc3cc(F)c(C(F)(F)F)c(F)c3)C(=O)N2C1 [PP3217] | 9.74 | A (a compound having 10 or more and less than 20 is denoted as A) | B (a compound having 3 or more and less than 10 is denoted as B) | 8.00 |  |
| C=C(C)C[C@H]1C(=O)N(C)[C@H](C(=O)N(C)C)CC(=O)N(C)[C@@H](CC(C)C)C(=O)N[C@@H]([C@@H](C)CC)C(=O)N2CCC[C@H]2C(=O)N(C)[C@H]2C/C=C\CCN(C2=O)[C@@H](Cc2ccc(C)cc2)C(=O)N(C)CC(=O)N[C@@H](CCc2cc(F)c(C(F)(F)F)c(F)c2)C(=O)N2C[C@H](OCC)C[C@H]2C(=O)N(C)C2(CCC2)C(=O)N1C [PP3351] | 8.38 | A (a compound having 10 or more and less than 20 is denoted as A) | A (a compound having 10 or more and less than 20 is denoted as A) | 7.46 |  |
| CC[C@H](C)[C@@H]1NC(=O)[C@H](COC)N(C)C(=O)C[C@@H](C(=O)N(C)CC)N(C)C(=O)[C@H](C2CCCC2)N(C)C(=O)C2(CC(C)(C)C2)NC(=O)[C@@H]2C[C@H](C)CN2C(=O)[C@H](CCc2ccc(C(F)(F)F)c(Cl)c2)NC(=O)CN(C)C(=O)[C@H](Cc2ccc(C)cc2)N2CC/C=C\C[C@@H](C2=O)N(C)C(=O)CN(C)C1=O [PP2506] |  | A (a compound having 10 or more and less than 20 is denoted as A) | A (a compound having 10 or more and less than 20 is denoted as A) | 7.97 | 9.89 |
| CCOC[C@H]1C(=O)N[C@@H]([C@@H](C)CC)C(=O)N2CCC[C@H]2C(=O)N(C)[C@H]2C/C=C\CCN(C2=O)[C@@H](Cc2ccc(C(F)(F)F)cc2)C(=O)N(C)CC(=O)N[C@@H](CCc2ccc(C(F)(F)F)c(OC)c2)C(=O)N2C[C@@H](C)C[C@H]2C(=O)N(C)C2(CCC2)C(=O)N(C)[C@@H](C2CCCC2)C(=O)N(C)[C@H](C(=O)N(C)C)CC(=O)N1C [PP2363] |  | A (a compound having 10 or more and less than 20 is denoted as A) | B (a compound having 3 or more and less than 10 is denoted as B) | 8.12 | 10.21 |
| CCO[C@@H]1C[C@H]2C(=O)NC3(CC(C)(C)C3)C(=O)N(C)[C@@H](C3CCCC3)C(=O)N(C)[C@H](C(=O)N(C)CC)CC(=O)N(C)[C@@H]([C@H](C)OC)C(=O)N[C@@H]([C@@H](C)CC)C(=O)N(C3CC3)CC(=O)N(C)[C@H]3C/C=C\CCN(C3=O)[C@@H](Cc3ccc(C)cc3)C(=O)N(C)CC(=O)N[C@@H](CCc3ccc(C(F)(F)F)c(OC)c3)C(=O)N2C1 [PP3228] | 9.09 | A (a compound having 10 or more and less than 20 is denoted as A) | A (a compound having 10 or more and less than 20 is denoted as A) | 7.38 |  |
| CCC[C@H]1C(=O)N[C@@H]([C@@H](C)CC)C(=O)N(C)CC(=O)N(C)[C@H]2C/C=C\CCN(C2=O)[C@@H](Cc2ccc(C(F)(F)F)cc2)C(=O)N(C)CC(=O)N[C@@H](CCc2cc(F)c(C(F)(F)F)c(F)c2)C(=O)N2CC3(CC3)C[C@H]2C(=O)NC2(CCC2)C(=O)N(C)[C@@H](C2CCCC2)C(=O)N(C)[C@H](C(=O)N(C)C)CC(=O)N1C [PP3436] | 10.23 | A (a compound having 10 or more and less than 20 is denoted as A) | A (a compound having 10 or more and less than 20 is denoted as A) | 8.34 |  |
| CCCO[C@@H]1C[C@H]2C(=O)NC3(CC(C)(C)C3)C(=O)N(C)[C@@H](C3CCCC3)C(=O)N(C)[C@H](C(=O)N(C)CC)CC(=O)N(C)[C@@H](COCC)C(=O)N[C@@H]([C@@H](C)CC)C(=O)N(C)CC(=O)N(C)[C@H]3C/C=C\CCN(C3=O)[C@@H](Cc3ccc(C)cc3)C(=O)N(C)CC(=O)N[C@@H](CCc3cc(F)c(C(F)(F)F)c(F)c3)C(=O)N2C1 [PP3419] | 9.82 | A (a compound having 10 or more and less than 20 is denoted as A) | A (a compound having 10 or more and less than 20 is denoted as A) | 7.92 |  |
